Measurements as given in patent US20250214969A1, “PROTEIN DEGRADERS AND USES THEREOF” (Kymera Therapeutics, Inc., priority 2022, published 2025).

target: T1, truncated His-MBP-Tev-KLHDC2 (residues 1-363) (Homo sapiens, UniProt Q9Y2U9); assay: KLHDC2 FP competition binding assay; conditions: 15 nM KLHDC2 (residues 1-363), 10 nM fluorescein-labeled diglycine peptide probe, read-out: KLHDC2 binding Human FP: average external IC50
T1 construct: truncated His -MBP-Tev-KLHDC2 (residues 1-363) purified from E. coli; made in house; host or cells: E. coli
T1 sequence (Q9Y2U9 1-363): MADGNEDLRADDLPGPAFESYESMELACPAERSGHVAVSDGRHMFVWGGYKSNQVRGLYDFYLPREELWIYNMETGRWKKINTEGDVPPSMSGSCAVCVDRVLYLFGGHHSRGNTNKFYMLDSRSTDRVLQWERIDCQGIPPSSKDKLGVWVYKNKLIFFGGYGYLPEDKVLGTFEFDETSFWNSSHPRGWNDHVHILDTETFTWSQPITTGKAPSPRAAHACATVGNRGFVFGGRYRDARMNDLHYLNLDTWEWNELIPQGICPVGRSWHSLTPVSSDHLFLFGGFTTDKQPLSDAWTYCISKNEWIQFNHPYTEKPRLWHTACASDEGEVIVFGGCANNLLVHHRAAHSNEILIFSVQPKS

IC50, > 5 µM:
Nc1ccc(-c2ccc(=O)n(CC(=O)O)c2)cc1 [I-332]
Cn1ccc2c(-c3ccc(=O)n(CC(=O)O)c3)cccc21 [I-333]
Cc1ccc(CC(C)C)cc1-c1ccc(=O)n(CC(=O)O)c1 [I-334]
O=C(O)Cc1cc(-c2ccccc2)ccc1O [I-335]
Cc1ccccc1-c1ccc(O)c(CC(=O)O)c1 [I-336]
Cc1cccc(-c2ccc(O)c(CC(=O)O)c2)c1 [I-337]
Cc1ccc(C)c(-c2ccc(O)c(CC(=O)O)c2)c1 [I-338]
O=C(O)Cn1cc(-c2cccc3[nH]ccc23)ccc1=O [I-339]
CCc1ccc(C)c(-c2ccc(=O)n(CC(=O)O)c2)c1 [I-340]
COc1ccc(C#N)cc1-c1ccc(=O)n(CC(=O)O)c1 [I-341]
Cc1ccc(Cl)c(-c2ccc(=O)n(CC(=O)O)c2)c1 [I-342]
Cc1ccc(F)c(-c2ccc(=O)n(CC(=O)O)c2)c1 [I-343]
CC(C)Cc1cccc(-c2ccc(=O)n(CC(=O)O)c2)c1 [I-344]
CCc1cccc(-c2ccc(=O)n(CC(=O)O)c2)c1 [I-345]
Cc1cc(O)ccc1-c1ccc(=O)n(CC(=O)O)c1 [I-346]
COc1c(F)cc(-c2ccc(=O)n(CC(=O)O)c2)cc1F [I-347]
Cc1cc(-c2ccc(=O)n(CC(=O)O)c2)c(C)cc1F [I-348]
CCCc1ccc(C)c(-c2ccc(=O)n(CC(=O)O)c2)c1 [I-349]
Cc1ccc(C(F)(F)F)cc1-c1ccc(=O)n(CC(=O)O)c1 [I-350]
O=C(O)Cc1cccc(NC(=O)CCc2cccc(OC3CCCC3)c2)c1 [I-351]
COc1ccc(-c2ccccc2C)cc1CC(=O)O [I-352]
COc1ccc(-c2cccc(C)c2)cc1CC(=O)O [I-353]
COc1ccc(-c2cc(C)ccc2C)cc1CC(=O)O [I-354]
O=C(O)Cn1cc(N2CCOCC2)ccc1=O [I-355]
Cc1cc(C)c(-c2ccc(=O)n(CC(=O)O)c2)cc1C [I-356]
O=C(O)Cn1cc(N2CCCCC2)ccc1=O [I-357]
CCCc1cccc(-c2ccc(=O)n(CC(=O)O)c2)c1 [I-358]
COc1cc(C)c(-c2ccc(=O)n(CC(=O)O)c2)cc1C [I-359]
Cc1cc(-c2ccc(=O)n(CC(=O)O)c2)c(C)cc1O [I-360]
O=C(O)Cn1cc(-c2cnc(N3CCOCC3)nc2)ccc1=O [I-361]
COc1ncc(-c2ccc(=O)n(CC(=O)O)c2)cn1 [I-362]
Cn1ccc2cccc(-c3ccc(=O)n(CC(=O)O)c3)c21 [I-363]
Cc1ccc(C#N)c(-c2ccc(=O)n(CC(=O)O)c2)c1 [I-364]
COc1ncc(-c2ccc(=O)n(CC(=O)O)c2)cc1F [I-365]
Cc1cc(OCc2ccccc2)ccc1-c1ccc(=O)n(CC(=O)O)c1 [I-366]
Nc1ccc(-c2ccc(=O)n(CC(=O)O)c2)cn1 [I-367]
O=C(O)Cn1cc(-c2cccc(O)c2)ccc1=O [I-368]
O=C(O)Cn1cc(-c2ccccc2C(F)(F)F)ccc1=O [I-369]
O=C(O)Cn1cc(-c2ccc(F)cc2F)ccc1=O [I-370]
O=C(O)Cn1cc(-c2cc(F)cc(F)c2)ccc1=O [I-371]
O=C(O)Cn1cc(-c2ccc(C(F)(F)F)cc2)ccc1=O [I-372]
O=C(O)Cn1cc(C(=O)NCc2ccccc2)ccc1=O [I-373]
O=C(O)Cn1cc(C(=O)Nc2ccccc2)ccc1=O [I-374]
O=C(O)Cn1cc(-c2cccc(Cl)c2)ccc1=O [I-375]
Cc1cc(-c2ccc(=O)n(CC(=O)O)c2)ccc1F [I-376]
O=C(O)Cn1cc(NC(=O)Cc2ccccc2)ccc1=O [I-377]
COc1cc(-c2ccc(=O)n(CC(=O)O)c2)ccn1 [I-378]
O=C(O)Cn1cc(-c2ccccc2Cl)ccc1=O [I-379]
O=C(O)Cn1cc(-c2ccc(N3CCCC3)nc2)ccc1=O [I-380]
O=C(O)Cn1cc(-c2cccc(C(F)(F)F)c2)ccc1=O [I-381]
O=C(O)Cn1cc(NC(=O)c2ccccc2)ccc1=O [I-382]
CN(C)C(=O)c1ccc(-c2ccc(=O)n(CC(=O)O)c2)c(F)c1 [I-383]
CN(C)C(=O)c1ccc(-c2ccc(=O)n(CC(=O)O)c2)cc1F [I-384]
CS(=O)(=O)c1cccc(-c2ccc(=O)n(CC(=O)O)c2)c1 [I-385]
O=C(O)Cn1cc(-c2ccc3cn[nH]c3c2)ccc1=O [I-386]
O=C(O)Cn1cc(-c2ccc3[nH]ncc3c2)ccc1=O [I-387]
CN(C)C(=O)c1ccc(-c2ccc(=O)n(CC(=O)O)c2)cc1Cl [I-388]
O=C(O)Cn1cc(-c2cc(F)c(O)c(F)c2)ccc1=O [I-389]
Cc1ccc(C)c(-c2cccn(CC(=O)O)c2=O)c1 [I-390]
Cc1cccc(-c2cccn(CC(=O)O)c2=O)c1 [I-391]
O=C(O)Cn1cc(-c2ccc(C(=O)N3CCOCC3)cc2)ccc1=O [I-392]
CN(C)C(=O)c1ccc(-c2ccc(=O)n(CC(=O)O)c2)cc1 [I-393]
CS(=O)(=O)c1ccccc1-c1ccc(=O)n(CC(=O)O)c1 [I-394]
O=C(O)Cn1cc(-c2ccccc2F)ccc1=O [I-395]
COc1cc(F)cc(-c2ccc(=O)n(CC(=O)O)c2)c1 [I-396]
Cc1ccc(Cl)cc1-c1ccc(=O)n(CC(=O)O)c1 [I-401]

target: T1, truncated His-MBP-Tev-KLHDC2 (residues 1-363); assay: KLHDC2 HTRF binding assay; conditions: 1 nM KLHDC2 (residues 1-363), fluorescein-labeled diglycine peptide probe

IC50, > 5 µM:
Nc1ccc(-c2ccc(=O)n(CC(=O)O)c2)cc1 [I-332]
Cn1ccc2c(-c3ccc(=O)n(CC(=O)O)c3)cccc21 [I-333]
Cc1ccc(CC(C)C)cc1-c1ccc(=O)n(CC(=O)O)c1 [I-334]
O=C(O)Cc1cc(-c2ccccc2)ccc1O [I-335]
Cc1ccccc1-c1ccc(O)c(CC(=O)O)c1 [I-336]
Cc1cccc(-c2ccc(O)c(CC(=O)O)c2)c1 [I-337]
Cc1ccc(C)c(-c2ccc(O)c(CC(=O)O)c2)c1 [I-338]
O=C(O)Cn1cc(-c2cccc3[nH]ccc23)ccc1=O [I-339]
CCc1ccc(C)c(-c2ccc(=O)n(CC(=O)O)c2)c1 [I-340]
COc1ccc(C#N)cc1-c1ccc(=O)n(CC(=O)O)c1 [I-341]
Cc1ccc(Cl)c(-c2ccc(=O)n(CC(=O)O)c2)c1 [I-342]
Cc1ccc(F)c(-c2ccc(=O)n(CC(=O)O)c2)c1 [I-343]
CC(C)Cc1cccc(-c2ccc(=O)n(CC(=O)O)c2)c1 [I-344]
CCc1cccc(-c2ccc(=O)n(CC(=O)O)c2)c1 [I-345]
Cc1cc(O)ccc1-c1ccc(=O)n(CC(=O)O)c1 [I-346]
COc1c(F)cc(-c2ccc(=O)n(CC(=O)O)c2)cc1F [I-347]
Cc1cc(-c2ccc(=O)n(CC(=O)O)c2)c(C)cc1F [I-348]
CCCc1ccc(C)c(-c2ccc(=O)n(CC(=O)O)c2)c1 [I-349]
Cc1ccc(C(F)(F)F)cc1-c1ccc(=O)n(CC(=O)O)c1 [I-350]
O=C(O)Cc1cccc(NC(=O)CCc2cccc(OC3CCCC3)c2)c1 [I-351]
COc1ccc(-c2ccccc2C)cc1CC(=O)O [I-352]
COc1ccc(-c2cccc(C)c2)cc1CC(=O)O [I-353]
COc1ccc(-c2cc(C)ccc2C)cc1CC(=O)O [I-354]
O=C(O)Cn1cc(N2CCOCC2)ccc1=O [I-355]
Cc1cc(C)c(-c2ccc(=O)n(CC(=O)O)c2)cc1C [I-356]
O=C(O)Cn1cc(N2CCCCC2)ccc1=O [I-357]
CCCc1cccc(-c2ccc(=O)n(CC(=O)O)c2)c1 [I-358]
COc1cc(C)c(-c2ccc(=O)n(CC(=O)O)c2)cc1C [I-359]
Cc1cc(-c2ccc(=O)n(CC(=O)O)c2)c(C)cc1O [I-360]
O=C(O)Cn1cc(-c2cnc(N3CCOCC3)nc2)ccc1=O [I-361]
COc1ncc(-c2ccc(=O)n(CC(=O)O)c2)cn1 [I-362]
Cn1ccc2cccc(-c3ccc(=O)n(CC(=O)O)c3)c21 [I-363]
Cc1ccc(C#N)c(-c2ccc(=O)n(CC(=O)O)c2)c1 [I-364]
COc1ncc(-c2ccc(=O)n(CC(=O)O)c2)cc1F [I-365]
Cc1cc(OCc2ccccc2)ccc1-c1ccc(=O)n(CC(=O)O)c1 [I-366]
Nc1ccc(-c2ccc(=O)n(CC(=O)O)c2)cn1 [I-367]
O=C(O)Cn1cc(-c2cccc(O)c2)ccc1=O [I-368]
O=C(O)Cn1cc(-c2ccccc2C(F)(F)F)ccc1=O [I-369]
O=C(O)Cn1cc(-c2ccc(F)cc2F)ccc1=O [I-370]
O=C(O)Cn1cc(-c2cc(F)cc(F)c2)ccc1=O [I-371]
O=C(O)Cn1cc(-c2ccc(C(F)(F)F)cc2)ccc1=O [I-372]
O=C(O)Cn1cc(C(=O)NCc2ccccc2)ccc1=O [I-373]
O=C(O)Cn1cc(C(=O)Nc2ccccc2)ccc1=O [I-374]
O=C(O)Cn1cc(-c2cccc(Cl)c2)ccc1=O [I-375]
Cc1cc(-c2ccc(=O)n(CC(=O)O)c2)ccc1F [I-376]
O=C(O)Cn1cc(NC(=O)Cc2ccccc2)ccc1=O [I-377]
COc1cc(-c2ccc(=O)n(CC(=O)O)c2)ccn1 [I-378]
O=C(O)Cn1cc(-c2ccccc2Cl)ccc1=O [I-379]
O=C(O)Cn1cc(-c2ccc(N3CCCC3)nc2)ccc1=O [I-380]
O=C(O)Cn1cc(-c2cccc(C(F)(F)F)c2)ccc1=O [I-381]
O=C(O)Cn1cc(NC(=O)c2ccccc2)ccc1=O [I-382]
CN(C)C(=O)c1ccc(-c2ccc(=O)n(CC(=O)O)c2)c(F)c1 [I-383]
CN(C)C(=O)c1ccc(-c2ccc(=O)n(CC(=O)O)c2)cc1F [I-384]
CS(=O)(=O)c1cccc(-c2ccc(=O)n(CC(=O)O)c2)c1 [I-385]
O=C(O)Cn1cc(-c2ccc3cn[nH]c3c2)ccc1=O [I-386]
O=C(O)Cn1cc(-c2ccc3[nH]ncc3c2)ccc1=O [I-387]
CN(C)C(=O)c1ccc(-c2ccc(=O)n(CC(=O)O)c2)cc1Cl [I-388]
O=C(O)Cn1cc(-c2cc(F)c(O)c(F)c2)ccc1=O [I-389]
Cc1ccc(C)c(-c2cccn(CC(=O)O)c2=O)c1 [I-390]
Cc1cccc(-c2cccn(CC(=O)O)c2=O)c1 [I-391]
O=C(O)Cn1cc(-c2ccc(C(=O)N3CCOCC3)cc2)ccc1=O [I-392]
CN(C)C(=O)c1ccc(-c2ccc(=O)n(CC(=O)O)c2)cc1 [I-393]
CS(=O)(=O)c1ccccc1-c1ccc(=O)n(CC(=O)O)c1 [I-394]
O=C(O)Cn1cc(-c2ccccc2F)ccc1=O [I-395]
COc1cc(F)cc(-c2ccc(=O)n(CC(=O)O)c2)c1 [I-396]
Cc1ccc(Cl)cc1-c1ccc(=O)n(CC(=O)O)c1 [I-401]
